Laboratory results taken from patent US11141410B2 (MERCK SHARP & DOHME CORP., priority 2015, dated 2021).
Like-named read-outs stand apart in the source and are kept apart here.

Experiments:
[1] = tested on: MRSA COL (MB5393); test: TarO Inhibitor/β-Lactam Synergy Assay (growth, OD600); assay type: cell-based, Staphylococcus aureus; details: for MITC95 TarO inhibitor + 4 μg/mL IPM; Bacteria: SA_MB5393: in combination with 4 μg/mL imipenem (IPM); for MITC95 TarO inhibitor + 8 μg/mL DCX; Bacteria: SA_MB5393: in combination with 8 μg/mL dicloxacillin (DCX)
In short: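 TarO inhibitors titrated 2-fold from 200 μM (2% DMSO) against MRSA COL, 5×10^5 CFU in CAMHB, with β-lactam fixed at clinical breakpoint (imipenem 4 μg/ml or dicloxacillin 8 μg/ml). Incubated 20 h at 37 °C without shaking; relative growth read as OD600.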

[2] = tested on: MRSA COL (MB 5393); test: In Vivo Murine Systemic Infection Model; design: species or system Female Balb/C mice; details: sc tid; for Bacteria recovered: kidneys 24 h post challenge, neutropenic mice
Protocol: The murine systemic infection model determines the therapeutic efficacy of TarO inhibitor/β-lactam combinations in vivo. Staphylococci bacteria can cause a systemic infection and establish a robust growth in the kidneys of the infected animal. MRSA COL can establish an infection even in the presence of β-lactam antibiotic due MRSA COL resistance to β-lactam antibiotics.
Female Balb/C mice were rendered neutropenic (immune suppressed) with a single 250 mg/kg intraperitoneal (ip) dose of cyclophosphamide on […]. MRSA COL (MB 5393) was grown for 16 hours in trypticase soy broth (TSB) at 37° C. and 0.5 mL of diluted culture (˜1×10^4 cfu) was administered intraperitoneal (IP). The TarO inhibitor and β-lactam antibiotic were administered alone or in combination by subcutaneous route at 2, 5 and 8 hr. post challenge (sc, tid). Twenty four hours post challenge mice were euthanized and the kidneys harvested, weighed, homogenized and plated to measure the total number of bacteria recovered as colony forming unit (CFU) remaining in compound treated groups as compared to vehicle (saline) or β-lactam antibiotic alone groups (statistical analyses was determined by one way ANOVA).

[3] = tested on: MRSA COL (MB5393); test: TarO Inhibitor/β-Lactam Synergy Assay (growth, OD600); assay type: cell-based; details: Staphylococcus aureus, read-out: MITC95 TarO inhibitor alone, Bacteria: SA_MB5393
[4] = TarO inhibitor alone, >200 μM = 95% growth inhibition not achieved, 20 hours at 37° C.

Row | Compound | MITC95 TarO inhibitor + 4 μg/mL IPM; Bacteria: SA_MB5393 [1] [µM] | MITC95 TarO inhibitor + 8 μg/mL DCX; Bacteria: SA_MB5393 [1] [µM] | IC95 [3, 4] [µM] | further results
1 | C[C@@H](O)[C@H]1C(=O)N2C(C(=O)O)=C(SCCN=CN)C[C@H]12 [Imipenem, imipenem, reference compound] | – | – | – | MITC95 concentration of β-lactam antibiotic alone ([1]; β-lactam alone, MRSA COL): 32 µg/mL; Fold reduction vs. vehicle alone ([2]; Imipenem alone 5 mg/kg): 4.6; Bacteria recovered ([2]; Imipenem alone 5 mg/kg): 1.3 × 10^7 cfu/g kidney
2 | C[C@H]1[C@@H](c2cccc(C(F)(F)F)c2)OC(=O)N1C(=O)NCc1cncc2ccccc12 [Example 18, (4S,5R)-N-(isoquinolin-4-ylmethyl)-4-methyl-2-oxo-5-[3-(trifluoromethyl)phenyl]-1,3-oxazolidine-3-carboxamide] | 0.23 | 1.95 | > 200 | Fold reduction vs. vehicle alone ([2]; TarO inhibitor alone 50 mg/kg): −0.9; Bacteria recovered ([2]; TarO inhibitor alone 50 mg/kg): 6.6×10^7 cfu/g kidney
3 | O=C(NCc1cccc2cncnc12)N1C(=O)O[C@H](c2cc(C(F)(F)F)cc(C(F)(F)F)c2)[C@@H]1CO [Example 54, (4S,5R)-5-[3,5-bis(trifluoromethyl)phenyl]-4-(hydroxymethyl)-2-oxo-N-(quinazolin-8-yl-methyl)-1,3-oxazolidine-3-carboxamide] | 0.20 | 0.65 | > 200 | –
4 | COc1cccc([C@H]2OC(=O)N(C(=O)CCc3cncc4ccccc34)[C@H]2C)c1 [Example 87, (4S,5R)-3-(3-isoquinolin-4-ylpropanoyl)-5-(3-methoxyphenyl)-4-methyl-1,3-oxazolidin-2-one] | 2.08 | 50 | > 200 | –
5 | C[C@H]1[C@@H](c2cc(F)cc(C(F)(F)F)c2)OC(=O)N1C(=O)NCc1ccccc1CN(C)C [Example 36, (4S,5R)-N-{2-[(dimethylamino)methyl]benzyl}-5-[3-fluoro-5-(trifluoromethyl)phenyl]-4-methyl-2-oxo-1,3-oxazolidine-3-carboxamide] | 6.25 | 25 | > 200 | –
6 | C[C@H]1[C@@H](c2cc(C(F)(F)F)cc(C(F)(F)F)c2)OC(=O)N1C(=O)NCc1ncccc1Br [Example 28, (4S,5R)-5-[3,5-bis(trifluoromethyl)phenyl]-N-[(3-bromopyridin-2-yl)methyl]-4-methyl-2-oxo-1,3-oxazolidine-3-carboxamide] | 0.70 | 4.69 | > 200 | –
7 | COc1cc([C@H]2OC(=O)N(C(=O)NCc3cccc4nccnc34)[C@H]2CO)cc(C(F)(F)F)c1 [Example 58, (4S,5R)-4-(hydroxymethyl)-5-[3-methoxy-5-(trifluoromethyl)phenyl]-2-oxo-N-(quinoxalin-5-ylmethyl)-1,3-oxazolidine-3-carboxamide] | 1.56 | 6.25 | > 200 | –
8 | Cc1ccc2c(n1)N(CCC(=O)N1C(=O)O[C@H](c3cc(F)cc(C(F)(F)F)c3)[C@@H]1C)CCO2 [Example 92, (4S,5R)-5-(3-fluoro-5-(trifluoromethyl)phenyl)-4-methyl-3-(3-(6-methyl-2,3-dihydro-4H-pyrido[3,2-b][1,4]oxazin-4-yl)propanoyl)oxazolidin-2-one] | 0.51 | 7.50 | > 200 | –
9 | C[C@H]1[C@@H](c2cc(F)cc(C(F)(F)F)c2)OC(=O)N1C(=O)NCc1ccccc1OC(F)F [Example 5, (4S,5R)-N-[2-(difluoromethoxy)benzyl]-5-[3-fluoro-5-(trifluoromethyl)phenyl]-4-methyl-2-oxo-1,3-oxazolidine-3-carboxamide] | 0.09 | 0.71 | > 200 | –
10 | C[C@H]1[C@@H](c2cccc(C(C)(F)F)c2)OC(=O)N1C(=O)NCc1cncc2ccccc12 [Example 27, (4S,5R)-5-[3-(1,1-difluoroethyl)phenyl]-N-(isoquinolin-4-ylmethyl)-4-methyl-2-oxo-1,3-oxazolidine-3-carboxamide] | 0.39 | 3.65 | > 200 | –
11 | C[C@H]1[C@@H](c2cc(F)cc(C(F)(F)F)c2)OC(=O)N1C(=O)N(O)Cc1cccc2ccccc12 [Example 46, (4S,5R)-5-[3-fluoro-5-(trifluoromethyl)phenyl]-N-hydroxy-4-methyl-N-(naphthalen-1-ylmethyl)-2-oxo-1,3-oxazolidine-3-carboxamide] | 6.25 | 50 | > 200 | –
12 | COc1cc(C(F)(F)F)cc([C@H]2OC(=O)N(C(=O)NCc3cncc4ccccc34)[C@H]2CO)n1 [Example 63, (4S,5S)-4-(hydroxymethyl)-N-(isoquinolin-4-ylmethyl)-5-(6-methoxy-4-(trifluoromethyl)-pyridin-2-yl)-2-oxooxazolidine-3-carboxamide] | 0.37 | 1.13 | – | IC95 ([3]; 20 h): > 200 µM
13 | C[C@H]1[C@@H](c2cc(F)cc(C(F)(F)F)c2)OC(=O)N1C(=O)CCc1cncc2ccccc12 [Example 70, (4S,5R)-5-[3-fluoro-5-(trifluoromethyl)phenyl]-3-(3-isoquinolin-4-ylpropanoyl)-4-methyl-1,3-oxazolidin-2-one] | 0.19 | 0.91 | > 200 | –
14 | C[C@H]1[C@@H](c2cc(F)cc(C(F)(F)F)c2)OC(=O)N1C(=O)NCc1cccc2ncccc12 [Example 37, (4S,5R)-5-[3-fluoro-5-(trifluoromethyl)phenyl]-4-methyl-2-oxo-N-(quinolin-5-ylmethyl)-1,3-oxazolidine-3-carboxamide] | 0.98 | 2.73 | > 200 | –
15 | C[C@H]1[C@@H](c2cc(F)cc(C3CC3)c2)OC(=O)N1C(=O)NCc1cncc2ccccc12 [Example 26, (4S,5R)-5-(3-cyclopropyl-5-fluorophenyl)-N-(isoquinolin-4-ylmethyl)-4-methyl-2-oxo-1,3-oxazolidine-3-carboxamide] | 0.25 | 0.99 | > 200 | –
